Results as given in publication PMC6600665, “Identification and Characterization of Approved Drugs and Drug-Like Compounds as Covalent Escherichia coli ClpP Inhibitors” (International Journal of Molecular Sciences, 2019).
Like-named read-outs stand apart in the source and are kept apart here.

How the values were obtained:
[1] = system: E. coli BW25-113 (wild type); experiment: Antibacterial growth inhibition assay in MHB, wild type; assay type: cell-based; settings: 24 h; for inhibition at 100 µM: Escherichia coli, read-out: Growth Inhibition (%)
Procedure: (§1) The potential of hit compounds to interfere with bacterial growth was evaluated in E. coli BW25-113 (wild type) and tolC-deficient strain E. coli JW5503 [34] (obtained from the NBRP-E. coli collection at the National Institute of Genetics, Mishima, Japan). The effect of the compounds on wild-type strain E. coli BW25-113 and the isogenic clpP-deficient E. coli JW0427-1 [34] (coli genetic stock center, New Haven, CT, USA) were measured in the presence of the efflux pump inhibitor Phe-Arg β-naphthylamide dihydrochloride (#P4157, Sigma-Aldrich, USA) at 25 μM. Single colonies of the bacterial strains from Mueller Hinton Agar culture were used to inoculate 5 mL of saline solution. The suspension was transferred into fresh, sterile Mueller Hinton broth (MHB) medium, resulting in a final concentration of 10^6 CFU/mL. Growth assays were carried out in 96-well, flat-bottom, sterile clear plates (#167008, Nunc, VWR, Radnor, PA, USA) and compounds were tested at 50 and 100 μM concentration (2% DMSO). Absorbance at 600 nm was measured using the Multiskan GO or Varioskan LUX plate reader (Thermo Fisher Scientific, Vantaa, Finland) for 24 h at hourly intervals. Between measurements, plates were incubated in a shaking incubator (500 rpm) at 37 °C.

[2] = system: E. coli BW25-113 (wild type); experiment: Growth delay under nitric oxide stress (DPTA NONOate) in M9 medium, wild type; assay type: cell-based; settings: WT E. coli, both tested concentrations (50 and 100 μM), M9 minimal medium
Procedure: (§2) Assessment of E. coli growth delay in presence of nitric oxide stress was carried out following our recently published protocol, which is an adaptation of the method reported by Robinson and Brynildsen to a 96-well plate format. Fresh MHB medium was inoculated with isolated colonies of E. coli BW25-113 or E. coli JW0427-1, grown on Luria Agar, and left overnight in a shaking incubator (250 rpm) at 37 °C. On the following day, the overnight culture was used to inoculate fresh M9 medium (supplemented with 10 mM glucose) 1:100, and was grown until OD600 ~0.3. Afterwards, the culture was transferred into 96-well, flat-bottom, sterile clear plates (#167008, Nunc, VWR). Bacterial OD600 was adjusted to 0.1 with M9 medium (supplemented with 10 mM glucose). Test compounds were transferred into the 96-well plates, followed by addition of the bacterial culture. Nitric oxide stress was induced by addition of 2 mM DPTA NONOate ((Z)-1-[N-(3-aminopropyl)-N-(3-ammoniopropyl)amino]diazen-1-ium-1,2-diolate, Cayman Chemical, Ann Arbor, MI, USA), dissolved in NaOH (final concentration 0.14 mM). Absorbance measurements (600 nm) were done with a Multiskan GO or Varioskan LUX plate reader (Thermo Fisher Scientific, Finland) at hourly intervals for 24 h. Between measurements, plates were incubated in a shaking incubator (500 rpm) at 37 °C.

A549 cells = experiment: in vitro; assay type: cell-based
Procedure: (§3) Potential cell toxicity of the tested compounds was evaluated by ATP quantification using the CellTiter-Glo® luminescent cell viability assay (Promega, Madison, WI, USA). […] After incubation, 20 µL of CellTiter-Glo® reagent were added per well and incubated at room temperature in the dark for another 30 min. Luminescence was quantified by an EnVision multi-plate reader (PerkinElmer, Rodgau, Germany).

in vitro = assay type: cell-based; settings: human, 48 h incubation, 1:3 dilutions starting from 200 μM
Procedure: as §3

MCF-7 cells = experiment: in vitro; assay type: cell-based
Procedure: as §3

HTC-116 cells = experiment: in vitro; assay type: cell-based
Procedure: as §3

E. coli ClpP [3] = molecular target: T1, E. coli ClpP (Escherichia coli, UniProt P0A6G7); experiment: Surface plasmon resonance binding to immobilized ClpP; settings: 80 µM, injected over 7 min, 30 min dissociation
T1 construct: His-tag; made in house; host or cells: E. coli SG1146a
T1 sequence (P0A6G7 15-207): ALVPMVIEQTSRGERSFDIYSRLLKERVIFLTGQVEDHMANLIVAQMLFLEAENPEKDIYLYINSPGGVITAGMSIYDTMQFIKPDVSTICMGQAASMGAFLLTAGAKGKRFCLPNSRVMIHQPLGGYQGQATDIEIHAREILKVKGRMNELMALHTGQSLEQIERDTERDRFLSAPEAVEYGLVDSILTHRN
Procedure: E. coli ClpP (80 μg/mL) protein was immobilized, using amine coupling (SPR-AS-HCA-03, Bruker Daltonics Inc., Billerica, MA, USA), onto the surface of the sensor chip of a SIERRA SPR-16 instrument (Bruker Daltonics GmbH, Bremen, Germany). ClpP protein was dissolved in acetate at pH 4. The running buffer contained 150 mM NaCl, 10 mM Hepes, 3 mM EDTA, and 0.05% (v/v) Tween-20. The flow rate for protein immobilization was 10 μL/min. Binding experiments were carried out using running buffer with the addition of 0.8% (v/v) of DMSO and 80 µM test substance (flow rate of 20 μL/min for 7 min and up to 30 min of dissociation time). […] SPR data were analyzed using the Analyzer 3 software (Bruker Daltonics GmbH), which includes algorithms for subtracting reference signals and accounting for non-specific interactions between the solvent and the sensor chip surface.

E. coli JW0427 (ΔclpP) [4] = experiment: Growth delay under nitric oxide stress (DPTA NONOate) in M9 medium, clpP-deficient strain; assay type: cell-based; settings: clpP-deficient E. coli, DPTA NONOate, compared with cells without compound
Procedure: as §2

bovine α-chymotrypsin = molecular target: T2, bovine α-chymotrypsin (Bos taurus, UniProt P00766); experiment: Serine protease selectivity assay with bovine α-chymotrypsin (Suc-LY-AMC); assay type: biochemical; settings: 200 μM compound concentration
T2 construct: purchased Sigma-Aldrich C4129
Procedure: Compound selectivity was assessed using bovine α-chymotrypsin (#C4129, Sigma-Aldrich, St. Louis, MO, USA) at 200 µM. The assay was carried out as described above, except that 1 ng/μL of α-chymotrypsin and 100 μM of Suc-LY-AMC substrate were dissolved in a buffer containing 150 mM NaCl, 10 mM CaCl2, 50 mM Tris-HCl, and 0.05% Brij® 35.

E. coli ClpP [5] = molecular target: T1, E. coli ClpP; experiment: Fluorescence-based E. coli ClpP proteolytic activity assay (Suc-LY-AMC), primary screen and dose-response; assay type: biochemical; settings: for E. coli ClpP inhibition [%] in the primary screen: 200 µM
Procedure: Briefly, 25 ng/μL of E. coli ClpP dissolved in a buffer containing 100 mM NaCl, 100 mM 4-(2-hydroxyethyl)-1-piperazineethanesulfonic acid (HEPES) pH 7.5, and 0.05% Brij® 35 were transferred into each well. Test compound addition (final concentration 200 µM) was carried out using an Echo® 550 liquid handling system (Labcyte, Sunnyvale, CA, USA). […] Changes in fluorescence (excitation 350 nm, emission 435 nm) were monitored at 1 min intervals at 30 °C over 1 h using an Infinite M1000 microplate reader (Tecan).
The assay was carried out as described above with increasing concentrations of test compounds. Dose-response experiments were done at least 3 times independently, each in technical triplicates.
Calculation of Z prime (Z’) for HTS assay performance was done according to Zhang et al.. Plates were considered for further analyses if Z’ > 0.6 [26].

E. coli JW0427 (ΔclpP) [6] = experiment: Antibacterial growth inhibition assay in MHB, clpP-deficient strain; assay type: cell-based; settings: Escherichia coli, 24 h, read-out: Growth Inhibition (%)
Procedure: as §1

E. coli JW5503 (ΔtolC) = experiment: Antibacterial growth inhibition assay in MHB, efflux pump-defective strain; assay type: cell-based; settings: Escherichia coli, 24 h, read-out: Growth Inhibition (%)
Procedure: as §1

[7] = E. coli WT, without PAβN, 100 μM, 37 °C, MHB
[8] = A549 cells, read-out: Cytotoxicity A549 IC50
[9] = HTC-116 cells, read-out: Cytotoxicity HTC-116 IC50
[10] = MCF-7 cells, read-out: Cytotoxicity MCF-7 IC50
[11] = read-out: E. coli ClpP inhibition [%] in the primary screen, primary screen, 200 µM
[12] = read-out: Inhibition (%) at 200 μM E. coli ClpP, 200 μM compound concentration

With O=c1oc(Cl)c(Cl)c2ccccc12 [3,4-DIC, 3,4-dichloroisocoumarin] the “Growth Inhibition (%)” value [1, 7] was “did not show any intrinsic antimicrobial activities”, the “Bacterial growth in absence of NO• stress” value [2] was “small growth delay” and the “Cytotoxicity A549 Ratio (IC50 cytotoxicity/IC50 ClpP)” value (from here on “Cytotoxicity A549 Ratio”) (A549 cells; A549) was 9.12. For the same compound, the IC50 at 48 h (in vitro; [8]) was 44.7 µM, the IC50 at 48 h (in vitro; [9]) was 45.1 µM and the IC50 at 48 h (in vitro; [10]) was 9.06 µM. The “Cytotoxicity MCF-7 Ratio (IC50 cytotoxicity/IC50 ClpP)” value (MCF-7 cells; MCF-7) was 1.85, the “Cytotoxicity HTC-116 Ratio (IC50 cytotoxicity/IC50 ClpP)” value (“Cytotoxicity HTC-116 Ratio” below) (HTC-116 cells; HTC-116) was 9.2 and the “Covalent / irreversible binding to ClpP by SPR” value (E. coli ClpP [3]) was “covalent binding”. For the same compound, the “Growth delay in presence of nitric oxide stress” value (E. coli JW0427 (ΔclpP) [4]) was “did not show any significant effect”, the “Inhibition (%) at 200 μM α-Chymotrypsin” value (bovine α-chymotrypsin) was “completely inhibited” and the inhibition at 200 µM (bovine α-chymotrypsin) was 101%. For the same compound, the IC50 (E. coli ClpP [5]) was 4.9 µM, the “E. coli ClpP inhibition [%] in the primary screen” value (from here on “E. coli ClpP inhibition [%]”) (E. coli ClpP [5]) was greater than 90% and the inhibition at 200 µM (E. coli ClpP [5]; [11]) was 98.9%. It also gave an inhibition at 200 µM (E. coli ClpP [5]; [12]) of 98.9%.

In the case of CC(C)C[C@H](NC(=O)[C@H](Cc1ccccc1)NC(=O)c1cnccn1)B(O)O [Bortezomib, bortezomib], the inhibition at 100 µM [1] is reported as 55%, the “Bacterial growth in absence of NO• stress” value [2] is reported as “did not show any effect” and the inhibition at 100 µM (E. coli JW0427 (ΔclpP) [6]) is reported as 100%. For the same compound, the “Cytotoxicity A549 Ratio” value (A549 cells) was 0.005, the “Cytotoxicity MCF-7 Ratio (IC50 cytotoxicity/IC50 ClpP)” value (MCF-7 cells) was 1 and the “Cytotoxicity HTC-116 Ratio” value (HTC-116 cells) was 0.005. The “Covalent / irreversible binding to ClpP by SPR” value (E. coli ClpP [3]) was “covalent binding”, the “SPR signal (resonance units, RU)” value (E. coli ClpP [3]) was “low change of absolute resonance unit” and the “Inhibition (%) at 200 μM α-Chymotrypsin” value (bovine α-chymotrypsin) was “completely inhibited”. The inhibition at 200 µM (bovine α-chymotrypsin) was 97.8%, the IC50 (E. coli ClpP [5]) was 0.04 µM and the “E. coli ClpP inhibition [%]” value (E. coli ClpP [5]) was greater than 90%. The inhibition at 200 µM (E. coli ClpP [5]; [11]) was 100% and the inhibition at 200 µM (E. coli ClpP [5]; [12]) was 100%.

For CO[C@@]1(NC(=O)CSCC#N)C(=O)N2C(C(=O)O)=C(CSc3nnnn3C)CS[C@@H]21 [Cefmetazole, cefmetazole], the inhibition at 100 µM [1, 7] was 100%, the inhibition at 100 µM (E. coli JW0427 (ΔclpP) [6]) was 100% and the “Cytotoxicity A549 Ratio” value (A549 cells; A549) was 73.53. For the same compound, the IC50 at 48 h (in vitro; [8]) was 250 µM, the IC50 at 48 h (in vitro; [9]) was 5430 µM and the IC50 at 48 h (in vitro; [10]) was 74.1 µM. The “Cytotoxicity HTC-116 Ratio” value (HTC-116 cells; HTC-116) was 1597.06, the “Inhibition (%) at 200 μM α-Chymotrypsin” value (bovine α-chymotrypsin) was “no inhibition” and the inhibition at 200 µM (bovine α-chymotrypsin) was 0%. For the same compound, the IC50 (E. coli ClpP [5]) was 3.4 µM, the “E. coli ClpP inhibition [%]” value (E. coli ClpP [5]) was greater than 90% and the inhibition at 200 µM (E. coli ClpP [5]; [11]) was 94.5%. For the same compound, the inhibition at 200 µM (E. coli ClpP [5]; [12]) was 94.5% and the inhibition at 100 µM (E. coli JW5503 (ΔtolC)) was 100%.
